# Reference: ChEMBL document CHEMBL1201862, “PubChem BioAssay data set” (2004)
#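 48-hour exposure; five concentrations; linearly interpolated endpoints. GI50 = concentration required for 50% inhibition of growth.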 The source made the active and inactive calls. Rule as the data show it: active = GI50 up to about 1.1 µM and inactive = higher.
# Assays:
# Experiment in all cases: DTP human tumour cell line panel, 48 h
# HOP-62 = test system: HOP-62
# PC-3 = test system: PC-3
# SNB-19 = test system: SNB-19
# RPMI-8226 = test system: RPMI-8226
# NCI/ADR-RES = test system: NCI/ADR-RES
# EKVX = test system: EKVX
# MOLT-4 = test system: MOLT-4
# NCI-H226 = test system: NCI-H226
# BT-549 = test system: BT-549
# KM12 = test system: KM12
# A549 = test system: A549
# NCI-H23 = test system: NCI-H23
# SW-620 = test system: SW-620
# MDA-MB-231 = test system: MDA-MB-231
# SNB-75 = test system: SNB-75
# HT-29 = test system: HT-29
# HCC 2998 = test system: HCC 2998
# A498 = test system: A498
# OVCAR-8 = test system: OVCAR-8
# CCRF-CEM = test system: CCRF-CEM
SMILES,GI50 (HOP-62),GI50 (PC-3),GI50 (SNB-19),GI50 (RPMI-8226),GI50 (NCI/ADR-RES),GI50 (EKVX),GI50 (MOLT-4),GI50 (NCI-H226),GI50 (BT-549),GI50 (KM12),GI50 (A549),GI50 (NCI-H23),GI50 (SW-620),GI50 (MDA-MB-231),GI50 (SNB-75),GI50 (HT-29),GI50 (HCC 2998),GI50 (A498),GI50 (OVCAR-8),GI50 (CCRF-CEM)
CN(C)c1ccc(C(=C2C=CC(=[N+](C)C)C=C2)c2c(O)c(S(=O)(=O)[O-])cc3cc(S(=O)(=O)O)ccc23)cc1,> 100 µM (inactive),> 100 µM (inactive),> 100 µM (inactive),> 100 µM (inactive),> 100 µM (inactive),> 100 µM (inactive),> 100 µM (inactive),> 100 µM (inactive),> 100 µM (inactive),> 100 µM (inactive),> 100 µM (inactive),> 100 µM (inactive),> 100 µM (inactive),> 100 µM (inactive),> 100 µM (inactive),> 100 µM (inactive),> 100 µM (inactive),> 100 µM (inactive),> 100 µM (inactive),–
CN(C)CC1CCCC(CN2CCCCC2)C1=O (centres undefined),> 100 µM (inactive),15.6 µM (inactive),> 88.3 µM (inactive),0.158 µM (active),3.89 µM (inactive),12.5 µM (inactive),0.604 µM (active),20.6 µM (inactive),15.2 µM (inactive),19.4 µM (inactive),> 62.1 µM (inactive),17.9 µM (inactive),1.87 µM (inactive),15.1 µM (inactive),19.4 µM (inactive),5.4 µM (inactive),18.5 µM (inactive),38.5 µM (inactive),14.2 µM (inactive),0.762 µM (active)
O=C1C(=C2SC(c3ccccc3)(c3ccccc3)c3ccccc32)C(=O)c2ccccc21,> 100 µM (inactive),82.4 µM (inactive),> 100 µM (inactive),> 100 µM (inactive),> 100 µM (inactive),> 100 µM (inactive),> 100 µM (inactive),> 100 µM (inactive),> 100 µM (inactive),> 100 µM (inactive),> 100 µM (inactive),> 100 µM (inactive),> 100 µM (inactive),> 100 µM (inactive),> 100 µM (inactive),> 100 µM (inactive),> 100 µM (inactive),> 100 µM (inactive),> 100 µM (inactive),> 100 µM (inactive)
CC(=O)Nc1ccc2cc(C#N)c(=O)[nH]c2n1,> 100 µM (inactive),> 100 µM (inactive),> 100 µM (inactive),> 100 µM (inactive),> 100 µM (inactive),> 100 µM (inactive),> 100 µM (inactive),> 100 µM (inactive),> 100 µM (inactive),64.3 µM (inactive),> 100 µM (inactive),> 100 µM (inactive),> 100 µM (inactive),> 100 µM (inactive),> 100 µM (inactive),–,> 100 µM (inactive),> 100 µM (inactive),> 100 µM (inactive),–
Nc1cc2c3c(cccc3c1)C(=O)N(c1ccc(OCCN3CCCC3)cc1)C2=O,15.9 µM (inactive),21.4 µM (inactive),17.2 µM (inactive),22.4 µM (inactive),23.9 µM (inactive),18.4 µM (inactive),18.5 µM (inactive),14.5 µM (inactive),15.8 µM (inactive),16.1 µM (inactive),16.2 µM (inactive),14.4 µM (inactive),29.4 µM (inactive),24.8 µM (inactive),3.94 µM (inactive),13.5 µM (inactive),17.5 µM (inactive),36.5 µM (inactive),15.9 µM (inactive),23.3 µM (inactive)
O=C(c1ccccc1)c1ccc2nc3n(c2c1)C(c1c(Cl)cccc1Cl)SC3 (centres undefined),6.37 µM (inactive),5.41 µM (inactive),3.85 µM (inactive),3.51 µM (inactive),2.13 µM (inactive),4.63 µM (inactive),2.72 µM (inactive),31.2 µM (inactive),3.54 µM (inactive),2.87 µM (inactive),4.49 µM (inactive),5.66 µM (inactive),3.53 µM (inactive),18.4 µM (inactive),2.34 µM (inactive),6.31 µM (inactive),7.05 µM (inactive),15.7 µM (inactive),6.65 µM (inactive),1.27 µM (inactive)
CC(C)c1nc(Cl)c(Cl)c(Cl)n1,12.6 µM (inactive),4.31 µM (inactive),18.6 µM (inactive),1.31 µM (inactive),5.78 µM (inactive),11.7 µM (inactive),1.8 µM (inactive),17.7 µM (inactive),0.621 µM (active),8.39 µM (inactive),2.58 µM (inactive),4.06 µM (inactive),1.7 µM (inactive),8.85 µM (inactive),11.2 µM (inactive),2.1 µM (inactive),3.49 µM (inactive),23.8 µM (inactive),2.1 µM (inactive),1.07 µM (active)
N#CSc1[nH]cnc1C(N)=O,> 100 µM (inactive),> 100 µM (inactive),> 100 µM (inactive),4.22 µM (inactive),> 85.5 µM (inactive),> 100 µM (inactive),> 10 µM (inactive),> 100 µM (inactive),> 80.7 µM (inactive),> 100 µM (inactive),> 100 µM (inactive),> 100 µM (inactive),90.6 µM (inactive),55.7 µM (inactive),> 100 µM (inactive),> 100 µM (inactive),> 100 µM (inactive),> 100 µM (inactive),> 100 µM (inactive),5.21 µM (inactive)
Cc1cc2c(c(S(=O)(=O)c3ccc(Cl)cc3[N+](=O)[O-])c1)NCCC2,50.9 µM (inactive),9.64 µM (inactive),> 100 µM (inactive),58.5 µM (inactive),37.6 µM (inactive),> 100 µM (inactive),–,> 100 µM (inactive),> 100 µM (inactive),35.1 µM (inactive),38.5 µM (inactive),45 µM (inactive),> 100 µM (inactive),> 100 µM (inactive),> 100 µM (inactive),66.1 µM (inactive),> 100 µM (inactive),> 100 µM (inactive),> 100 µM (inactive),–
COC(=O)C(=O)C(C(=O)C(=O)Nc1ccc([N+](=O)[O-])cc1[N+](=O)[O-])c1nc2ccc(Cl)cc2nc1O (centres undefined),–,> 100 µM (inactive),> 100 µM (inactive),> 100 µM (inactive),87.3 µM (inactive),–,> 100 µM (inactive),78.5 µM (inactive),> 100 µM (inactive),> 100 µM (inactive),> 100 µM (inactive),> 100 µM (inactive),> 100 µM (inactive),50.2 µM (inactive),16.5 µM (inactive),> 100 µM (inactive),> 100 µM (inactive),> 100 µM (inactive),> 100 µM (inactive),> 10 µM (inactive)
CC(C)=CC[C@H]1C[C@]2(CC=C(C)C)C(=O)[C@@](CC=C(C)C)(C(=O)C(C(=O)c3ccccc3)=C2O)C1(C)C [6-EPI-CLUSIANONE],6.87 µM (inactive),4.78 µM (inactive),5.21 µM (inactive),3.37 µM (inactive),5.33 µM (inactive),5.05 µM (inactive),4.56 µM (inactive),14.1 µM (inactive),8.93 µM (inactive),3.88 µM (inactive),4.94 µM (inactive),7.67 µM (inactive),6.28 µM (inactive),6.01 µM (inactive),7.28 µM (inactive),4.67 µM (inactive),3.85 µM (inactive),9.46 µM (inactive),5.78 µM (inactive),–
CC(=O)OCC(OC(C)=O)C1C[C@H]2O[C@@H]3[C@H](C[C@H]2O1)O[C@@]1(C[C@@H]3C)C[C@H](C)[C@@H]2O[C@]3(C[C@@H]2O1)C[C@H]1O[C@H]2[C@H](C)[C@H]4OC(=O)CC5CC[C@H]6OC7[C@H]8O[C@]9(CC[C@H]%10CC(O)(CO)[C@H](CC[C@H]%11C[C@@H](C)C(O)(CO)C(C[C@@H]4O[C@H]2C[C@H]1O3)O%11)O%10)CC8O[C@@H]7[C@@H](O9)[C@H]6O5 (some centres undefined),0.0622 µM (active),0.00614 µM (active),0.0194 µM (active),0.00282 µM (active),0.0201 µM (active),0.0234 µM (active),0.0064 µM (active),0.0122 µM (active),0.00185 µM (active),0.00415 µM (active),0.00643 µM (active),0.00496 µM (active),0.00492 µM (active),0.0705 µM (active),0.00308 µM (active),–,0.00532 µM (active),> 0.214 µM (active),0.0121 µM (active),0.00944 µM (active)
N=c1oc2ccc3ccccc3c2cc1C(N)=O,48.3 µM (inactive),18.7 µM (inactive),25.1 µM (inactive),> 100 µM (inactive),35.5 µM (inactive),–,48.6 µM (inactive),15.3 µM (inactive),89.7 µM (inactive),16.7 µM (inactive),64.6 µM (inactive),48.6 µM (inactive),44 µM (inactive),25.9 µM (inactive),71.9 µM (inactive),38.7 µM (inactive),49.3 µM (inactive),43.7 µM (inactive),80.5 µM (inactive),35.9 µM (inactive)
CCOC(=O)CCSc1nc2ccc(I)cc2c(=O)n1Cc1ccccc1,26.5 µM (inactive),41.7 µM (inactive),38.2 µM (inactive),5.22 µM (inactive),23.7 µM (inactive),22.3 µM (inactive),–,21.6 µM (inactive),35.6 µM (inactive),22.3 µM (inactive),31.6 µM (inactive),15.6 µM (inactive),41.1 µM (inactive),28.2 µM (inactive),30.3 µM (inactive),34.4 µM (inactive),26.5 µM (inactive),24.6 µM (inactive),37.5 µM (inactive),15.8 µM (inactive)
